Consider 15 molecules from patent US11999727B2 (Tango Therapeutics, Inc., priority 2020, dated 2024).

Each structure is given as a SMILES string. A value given as a limit tells only on which side of the number the result lay.

For assay [1], the target named is T1, PRMT5 (Homo sapiens, UniProt O14744).
T1 construct: purchased Viva (custom protein)
Put plainly: PRMT5 biochemical IC50 assay with SAM as cofactor. The note with it: PRMT5, SAM as cofactor; read-out: SAM IC50.

Assay [2] has as its target T1, PRMT5. Put plainly: PRMT5 biochemical IC50 assay with no cofactor. Conditions: PRMT5, no cofactor; read-out: No Cofactor/rel IC50. An excerpt: Table 1 indicates IC50 values (μM) against PRMT5 for exemplary compounds in the presence of SAM as cofactor, with no cofactor, and with MTA as cofactor, respectively (columns 4-6). […] Ki values can be calculated from the IC50 values as described in the Examples section. As detailed in the Examples section, for the assay performed in the presence of SAM, IC50=Ki×1.5 (Ki=IC50/1.5).

In assay [3] the target is T1, PRMT5. The assay can be described thus: PRMT5 biochemical IC50 assay with MTA as cofactor. The note with it: PRMT5, MTA as cofactor; read-out: MTA IC50.
Assay [4] deals with HAP1 MTAP-intact cell line. Put plainly: SDMA in-cell western assay, HAP1 MTAP-intact. It counts as cell-based. Conditions: Homo sapiens, HAP1, SDMA in-cell western, HAP1 MTAP-intact; read-out: MTAP HAP1 intact IC50. Summed up:
(§1)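 MTAP-null vs endogenous-MTAP HAP1 isogenic cells; in-cell western SDMA readout; IC50 per line.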

Assay [5] relates to HAP1 MTAP-deleted cell line. The assay can be described thus: SDMA in-cell western assay, HAP1 MTAP-deleted. It counts as cell-based. The note with it: for IC50: Homo sapiens, HAP1, SDMA in-cell western, HAP1 MTAP-deleted, read-out: HAP1 MTAP deleted IC50; for MTAP intact/deleted ratio: IC50 ratio HAP1 MTAP-intact / HAP1 MTAP-deleted, SDMA in-cell western. The method, boiled down: as §1

Assay [6] relates to HAP1 MTAP-deleted cell line. The assay can be described thus: Viability assay, MTAP-deleted cell line. The class given is cell-based. The note with it: Homo sapiens, HAP1, viability assay, HAP1 MTAP-deleted; read-out: HAP1 MTAP deleted viability. The text has this: Table 1 additionally indicates IC50 values in a viability assay for the MTAP-deleted cell line (column 10), indicating the effect of treatment with compound on cell survival.

T1 sequence (O14744 whole entry): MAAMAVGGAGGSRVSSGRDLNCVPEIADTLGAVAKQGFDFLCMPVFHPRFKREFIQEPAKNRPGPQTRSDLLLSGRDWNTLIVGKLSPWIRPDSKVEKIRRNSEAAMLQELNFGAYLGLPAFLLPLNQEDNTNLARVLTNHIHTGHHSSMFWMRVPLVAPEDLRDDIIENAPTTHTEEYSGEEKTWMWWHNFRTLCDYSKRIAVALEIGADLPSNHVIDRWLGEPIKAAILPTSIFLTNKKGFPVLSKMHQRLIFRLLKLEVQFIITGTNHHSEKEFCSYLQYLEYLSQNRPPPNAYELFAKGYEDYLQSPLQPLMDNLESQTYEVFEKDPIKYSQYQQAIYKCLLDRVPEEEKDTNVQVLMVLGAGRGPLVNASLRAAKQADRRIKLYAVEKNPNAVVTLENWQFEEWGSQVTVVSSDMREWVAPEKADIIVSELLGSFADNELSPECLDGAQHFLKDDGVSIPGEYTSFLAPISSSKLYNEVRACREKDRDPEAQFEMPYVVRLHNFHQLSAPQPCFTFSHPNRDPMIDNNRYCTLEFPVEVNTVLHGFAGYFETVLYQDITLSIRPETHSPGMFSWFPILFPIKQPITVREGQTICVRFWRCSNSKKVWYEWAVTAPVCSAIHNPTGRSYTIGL
T1 sequence (Q9BQA1 whole entry partner): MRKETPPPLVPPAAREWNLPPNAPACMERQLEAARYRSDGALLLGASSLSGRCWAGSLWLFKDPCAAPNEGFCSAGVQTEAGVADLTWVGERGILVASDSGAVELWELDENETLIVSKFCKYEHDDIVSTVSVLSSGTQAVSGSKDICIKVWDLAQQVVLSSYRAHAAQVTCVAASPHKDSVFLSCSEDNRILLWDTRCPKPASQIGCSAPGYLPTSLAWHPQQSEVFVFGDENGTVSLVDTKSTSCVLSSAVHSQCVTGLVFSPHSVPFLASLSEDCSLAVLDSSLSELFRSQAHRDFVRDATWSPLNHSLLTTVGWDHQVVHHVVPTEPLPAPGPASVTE

For `Cc1cc(NC(=O)C(=O)N2C[C@H](C)CC[C@H]2c2ccn(-c3ccn[nH]3)n2)cnc1N` (racemic) [Compound 715, 2-(2-(1′H-[1,3′-bipyrazol]-3-yl)-5-methylpiperidin-1-yl)-N-(6-amino-5-methylpyridin-3-yl)-2-oxoacetamide], the IC50 is more than 500 nM on PRMT5 [1]; 50 to 500 nM on PRMT5 [2]; 50 to 500 nM on PRMT5 [3]; more than 1000 nM in assay [4]; less than 100 nM in assay [5]; 1000 to 10000 nM in assay [6]. Besides, the MTAP intact/deleted ratio entry in assay [5] is listed as “A (an IC50 ratio greater than or equal to 10 fold)”.

In the case of `Cc1cc(NC(=O)C(=O)N2C[C@H](C)CC[C@H]2c2ccc3ncsc3c2)cnc1N` (racemic) [Compound 716, N-(6-amino-5-methyl-3-pyridyl)-2-[(2S,5R)-2-(1,3-benzothiazol-6-yl)-5-methyl-1-piperidyl]-2-oxo-acetamide], the IC50 at PRMT5 [1] is 50 to 500 nM; at PRMT5 [2] it was 50 to 500 nM; at PRMT5 [3] it was less than 50 nM; in assay [4], more than 1000 nM; in assay [5], less than 100 nM; in assay [6], less than 1000 nM. For the same molecule, the MTAP intact/deleted ratio result in assay [5] is reported as “A (an IC50 ratio greater than or equal to 10 fold)”.

As to `CC(=O)N1CCC([C@@H]2CC[C@@H](C)CN2C(=O)C(=O)Nc2cnc(N)c(C)c2)CC1` (racemic) [Compound 737, 2-[(2R,5S)-2-(1-acetyl-4-piperidyl)-5-methyl-1-piperidyl]-N-(6-amino-5-methyl-3-pyridyl)-2-oxo-acetamide], the IC50 at PRMT5 [1] is more than 500 nM; at PRMT5 [2], 50 to 500 nM; on PRMT5 [3] it was 50 to 500 nM; in assay [4], more than 1000 nM; in assay [5], more than 1000 nM; in assay [6], more than 10000 nM. Further, the MTAP intact/deleted ratio result in assay [5] is on record as “B (an IC50 ratio greater than or equal to 3 fold but lower than 10 fold)”.

For the molecule `CCOc1ncc(NC(=O)C(=O)N2C[C@@H](C)CC[C@@H]2c2ccccc2)cc1C(N)=O` (racemic) [Compound 738], the IC50 at PRMT5 [1] was 50 to 500 nM; at PRMT5 [2], 50 to 500 nM; on PRMT5 [3] it was 50 to 500 nM; in assay [4] it was more than 1000 nM; in assay [5], more than 1000 nM; in assay [6], more than 10000 nM. Further, in assay [5], the MTAP intact/deleted ratio entry is given as “B (an IC50 ratio greater than or equal to 3 fold but lower than 10 fold)”.

As to `Cc1cc(NC(=O)C(=O)N2C[C@H](C)CC[C@H]2c2cc3[nH]ncc3s2)cnc1N` (racemic) [Compound 743, N-(6-amino-5-methylpyridin-3-yl)-2-(5-methyl-2-(1H-thieno[3,2-c]pyrazol-5-yl)piperidin-1-yl)-2-oxoacetamide], the IC50 at PRMT5 [1] is 50 to 500 nM; at PRMT5 [2] it was 50 to 500 nM; on PRMT5 [3] it was 50 to 500 nM; in assay [4], 100 to 1000 nM; in assay [5], less than 100 nM; in assay [6], less than 1000 nM. The MTAP intact/deleted ratio entry in assay [5] is reported as “A (an IC50 ratio greater than or equal to 10 fold)”.

For the molecule `Cc1cc(NC(=O)C(=O)N2C[C@H](C)CC[C@H]2C2CCCNC2)cnc1N` (mixture of isomers) [Compound 744, N-(6-amino-5-methyl-3-pyridyl)-2-[(2R,5S)-5-methyl-2-(3-piperidyl)-1-piperidyl]-2-oxo-acetamide], the IC50 is more than 500 nM at PRMT5 [1]; more than 500 nM at PRMT5 [2]; 50 to 500 nM on PRMT5 [3]; more than 1000 nM in assay [4]; more than 1000 nM in assay [5]; more than 10000 nM in assay [6]. In assay [5], the MTAP intact/deleted ratio result was “C (an IC50 ratio of less than 3 fold)”.

Regarding `CC(=O)N[C@H]1CCN(C(=O)C(=O)Nc2cncc(C(N)=O)c2)[C@@H](c2ccccc2)C1` (racemic) [Compound 745, 5-[[2-[(2R,4S)-4-acetamido-2-phenyl-1-piperidyl]-2-oxo-acetyl]amino]pyridine-3-carboxamide], the IC50 is more than 500 nM at PRMT5 [1]; more than 500 nM on PRMT5 [2]; 50 to 500 nM on PRMT5 [3]; more than 1000 nM in assay [4]; more than 1000 nM in assay [5]; more than 10000 nM in assay [6]. In assay [5], the MTAP intact/deleted ratio result is given as “C (an IC50 ratio of less than 3 fold)”.

Regarding `CCc1ncc(NC(=O)C(=O)N2C[C@@H](C)CC[C@@H]2c2ccccc2)cc1C(N)=O` (racemic) [Compound 747, 2-Ethyl-5-[[2-[(2S,5R)-5-methyl-2-phenyl-1-piperidyl]-2-oxo-acetyl]amino]pyridine-3-carboxamide], the IC50 is 50 to 500 nM on PRMT5 [1]; 50 to 500 nM at PRMT5 [2]; 50 to 500 nM on PRMT5 [3]; more than 1000 nM in assay [4]; more than 1000 nM in assay [5]; more than 10000 nM in assay [6]. Moreover, the MTAP intact/deleted ratio result in assay [5] is reported as “B (an IC50 ratio greater than or equal to 3 fold but lower than 10 fold)”.

For the molecule `CC(=O)N1CCCC([C@@H]2CC[C@@H](C)CN2C(=O)C(=O)Nc2cnc(N)c(C)c2)C1` (mixture of isomers) [Compound 757, rac-2-[(2R,5S)-2-(1-acetyl-3-piperidyl)-5-methyl-1-piperidyl]-N-(6-amino-5-methyl-3-pyridyl)-2-oxo-acetamide], the IC50 at PRMT5 [1] was 50 to 500 nM; on PRMT5 [2], 50 to 500 nM; on PRMT5 [3], 50 to 500 nM; in assay [4], more than 1000 nM; in assay [5], 100 to 1000 nM; in assay [6], more than 10000 nM. Also, the MTAP intact/deleted ratio entry in assay [5] is recorded as “B (an IC50 ratio greater than or equal to 3 fold but lower than 10 fold)”.

As for `COc1ncc(NC(=O)C(=O)N2C[C@@H](C)CC[C@@H]2c2ccc3c(c2)C(=O)NC3)cc1C(N)=O` (racemic) [Compound 759, 2-methoxy-5-[[2-[(2S,5R)-5-methyl-2-(3-oxoisoindolin-5-yl)-1-piperidyl]-2-oxo-acetyl]amino]pyridine-3-carboxamide], the IC50 was 50 to 500 nM at PRMT5 [1]; 50 to 500 nM at PRMT5 [2]; less than 50 nM at PRMT5 [3]; more than 1000 nM in assay [4]; 100 to 1000 nM in assay [5]; 1000 to 10000 nM in assay [6]. For the same molecule, the MTAP intact/deleted ratio entry in assay [5] is “A (an IC50 ratio greater than or equal to 10 fold)”.

In the case of `Cc1cc(NC(=O)C(=O)N2C[C@H](C)CC[C@H]2C2CC3(CC(N)C3)C2)cnc1N` (mixture of isomers) [Compound 773, N-(6-amino-5-methylpyridin-3-yl)-2-(2-(6-aminospiro[3.3]heptan-2-yl)-5-methylpiperidin-1-yl)-2-oxoacetamide], the IC50 is 50 to 500 nM at PRMT5 [1]; 50 to 500 nM on PRMT5 [2]; 50 to 500 nM on PRMT5 [3]; more than 1000 nM in assay [4]; 100 to 1000 nM in assay [5]; 1000 to 10000 nM in assay [6]. Also, the MTAP intact/deleted ratio entry in assay [5] is reported as “B (an IC50 ratio greater than or equal to 3 fold but lower than 10 fold)”.

As to `Cc1cc(NC(=O)C(=O)N2C[C@@H](C)CC[C@H]2C23CC(O)(C2)C3)cnc1N` (racemic) [Compound 774], the IC50 on PRMT5 [1] is more than 500 nM; at PRMT5 [2] it was more than 500 nM; at PRMT5 [3], 50 to 500 nM; in assay [4], more than 1000 nM; in assay [5], more than 1000 nM; in assay [6] it was more than 10000 nM. Also, the MTAP intact/deleted ratio result in assay [5] is on record as “B (an IC50 ratio greater than or equal to 3 fold but lower than 10 fold)”.

As for `CNC(=O)N1CCC([C@@H]2CC[C@@H](C)CN2C(=O)C(=O)Nc2cnc(N)c(C)c2)CC1` (racemic) [Compound 781, 4-[(2R,5S)-1-[2-[(6-amino-5-methyl-3-pyridyl)amino]-2-oxo-acetyl]-5-methyl-2-piperidyl]-N-methyl-piperidine-1-carboxamide], the IC50 on PRMT5 [1] is 50 to 500 nM; on PRMT5 [2], 50 to 500 nM; on PRMT5 [3], 50 to 500 nM; in assay [4] it was more than 1000 nM; in assay [5] it was less than 100 nM; in assay [6] it was 1000 to 10000 nM. The MTAP intact/deleted ratio result in assay [5] is listed as “A (an IC50 ratio greater than or equal to 10 fold)”.

As for `C[C@@H]1CC[C@@H](c2cncc(Cl)c2)N(C(=O)C(=O)Nc2cncc(C(N)=O)c2)C1` (racemic) [Compound 791, 5-(2-(2-(5-chloropyridin-3-yl)-5-methylpiperidin-1-yl)-2-oxoacetamido)nicotinamide], the IC50 at PRMT5 [1] was 50 to 500 nM; at PRMT5 [2], 50 to 500 nM; at PRMT5 [3] it was less than 50 nM; in assay [4] it was more than 1000 nM; in assay [5], 100 to 1000 nM; in assay [6], 1000 to 10000 nM. In assay [5], the MTAP intact/deleted ratio result is reported as “A (an IC50 ratio greater than or equal to 10 fold)”.

Consider `Cc1cc(NC(=O)C(=O)N2C[C@H](C)CC[C@H]2c2cnn(-c3ccn[nH]3)c2)cnc1N` (racemic) [Compound 793, N-(6-amino-5-methyl-3-pyridyl)-2-[(2R,5S)-5-methyl-2-[1-(1H-pyrazol-3-yl)pyrazol-4-yl]-1-piperidyl]-2-oxo-acetamide], for which the IC50 at PRMT5 [1] was 50 to 500 nM; at PRMT5 [2], 50 to 500 nM; on PRMT5 [3], 50 to 500 nM; in assay [4], more than 1000 nM; in assay [5], 100 to 1000 nM; in assay [6], 1000 to 10000 nM. In assay [5], the MTAP intact/deleted ratio entry was “A (an IC50 ratio greater than or equal to 10 fold)”.
